# Experimental data taken from patent US6756359B2, “C12 modified erythromycin macrolides and ketolides having antibacterial activity” (Chiron Corporation, priority 2001, dated 2004).
# Tests used:
# Assay in all cases: Antibacterial activity in vitro, MIC by broth microdilution
# H. influenzae Hain_49247 = assay type: cell-based, Haemophilus influenzae; details: Table 5, Strain ID M: H. influenzae Hain_49247; unit assumed
# Procedure: (§1) Representative compounds of the present invention were assayed in vitro for antibacterial activity against the bacterial isolates listed in Table 1 as follows:
# (§2) The bacterial isolates listed in Table 1 were cultivated from −70° C. frozen stocks by two consecutive overnight passages (P1, P2) at 35° C. on 5% blood agar (Remel, Lenexa, Kans.). Chocolate agar (Remel) is used for Haemophilus influenzae. H. influenzae and Streptococcus pneumoniae are incubated in 5-10% CO2.
# (§3) To determine the amount of solvent to be used to give the desired final concentration, the formula “weight obtained in mg/final concentration in mg/mL” will be used. It will give the amount of solvent in mL needed to be added to give the desired concentration. For example, if 2.5 mg/mL is the desired concentration and the weight of compound is 13.7 mg, then the amount of solvent to be added is 3.94 mL (13.7 mg/2.5 mg/mL=3.94 mLs). Methanol is used as the solvent to dissolve the test compounds. Further dilution of stock is done in sterile, deioinzed water. Drug stocks are kept frozen at −70° C., protected from light.
# (§4) MICs are determined by the broth microdilution method in accordance with the NCCLS guidelines. In brief, organism suspensions are adjusted to a 0.5 McFarland standard to yield a final inoculum between 3×10^5 and 7×10^5 CFU/mL. Drug dilutions and inocula are made in sterile, cation adjusted Mueller-Hinton Broth (CAMHB) (Remel) for all but S. pneumoniae [CAMHB with 2-5% lysed horse blood (Remel)] and H. influenzae [Haemophilus Test Medium (Remel)]. An inoculum volume of 100 μl is added to wells containing 100 μl of broth with 2-fold serial dilutions of drug. All inoculated microdilution trays are incubated in ambient air at 35° C. for 18-24 hours, except for S. pneumoniae, and H. influenzae (both at 5-10% CO2).
# (§5) Following appropriate incubation, the MIC is determined and the MIC is defined as the lowest concentration of the drug that prevented visible growth.
# S. pyogenes Stpy_8668 = assay type: cell-based; details: Table 5, Strain ID E: S. pyogenes Stpy_8668
# Procedure: as §1, §2, §3, §4, §5
# S. aureus Stau_29213 = assay type: cell-based; details: Table 5, Strain ID A: S. aureus Stau_29213; unit assumed
# Procedure: as §1, §2, §3, §4, §5
# [1] = tested on: S. epidermidis Step_f50654 Pen S; assay type: cell-based; details: Table 5, Strain ID C: S. epidermidis Step_f50654; unit assumed
# Procedure: as §1, §2, §3, §4, §5
# E. faecalis Enfa_29212 = assay type: cell-based; details: Table 5, Strain ID D: E. faecalis Enfa_29212; unit assumed
# Procedure: as §1, §2, §3, §4, §5
# [2] = tested on: S. epidermidis Step_14990; assay type: cell-based; details: Table 5, Strain ID B: S. epidermidis Step_14990; unit assumed
# Procedure: as §1, §2, §3, §4, §5
# [3] = tested on: S. pneumoniae Stpn_297-749 Pen R; assay type: cell-based, Streptococcus pneumoniae; details: Table 5, Strain ID G: S. pneumoniae Stpn_297-749
# Procedure: as §1, §2, §3, §4, §5
# [4] = tested on: S. pneumoniae Stpn_Mef 5654; assay type: cell-based, Streptococcus pneumoniae; details: Table 5, Strain ID K: S. pneumoniae Stpn_Mef 5654; unit assumed
# Procedure: as §1, §2, §3, §4, §5
# [5] = tested on: S. pneumoniae Stpn_Erm S 4297; assay type: cell-based, Streptococcus pneumoniae; details: Table 5, Strain ID J: S. pneumoniae Stpn_Erm S 4297
# Procedure: as §1, §2, §3, §4, §5
# [6] = tested on: S. pneumoniae Stpn_Erm 6849; assay type: cell-based, Streptococcus pneumoniae; details: Table 5, Strain ID I: S. pneumoniae Stpn_Erm 6849; unit assumed
# Procedure: as §1, §2, §3, §4, §5
# [7] = tested on: S. pneumoniae Stpn_280-962 Pen S; assay type: cell-based, Streptococcus pneumoniae; details: Table 5, Strain ID H: S. pneumoniae Stpn_280-962
# Procedure: as §1, §2, §3, §4, §5
# [8] = tested on: S. pneumoniae Stpn_Mef S 3427; assay type: cell-based, Streptococcus pneumoniae; details: Table 5, Strain ID L: S. pneumoniae Stpn_Mef S 3427; unit assumed
# Procedure: as §1, §2, §3, §4, §5
# S. pneumoniae Stpn_49619 = assay type: cell-based, Streptococcus pneumoniae; details: Table 5, Strain ID F: S. pneumoniae Stpn_49619
# Procedure: as §1, §2, §3, §4, §5
Compound,MIC (H. influenzae Hain_49247) [µg/mL],MIC (S. pyogenes Stpy_8668),MIC (S. aureus Stau_29213) [µg/mL],MIC [1] [µg/mL],MIC (E. faecalis Enfa_29212) [µg/mL],MIC [2] [µg/mL],MIC [3],MIC [4] [µg/mL],MIC ([5]; unit assumed) [µg/mL],MIC [6] [µg/mL],MIC [7],MIC [8] [µg/mL],MIC (S. pneumoniae Stpn_49619),MIC [5],MIC ([3]; unit assumed) [µg/mL]
"CC[C@H]1OC(=O)[C@H](C)C(=O)[C@H](C)[C@@H](OC2O[C@H](C)C[C@H](N(C)C)[C@H]2O)[C@@](C)(OC)C[C@@H](C)C(=O)[C@H](C)[C@H]2N(CCCCn3cnc4ncccc43)C(=O)O[C@]12CC (stereo partly drawn) [Example 22, (3aS,4R,7R,9R,10R,11S,13R,15R,15aR)-3a,4-diethyl-1-[4-(1H-imidazo[4,5-b]pyridin-1-yl)butyl]-11-methoxy-7,9,11,13,15-pentamethyl-2,6,8,14-tetraoxotetradecahydro-2H-oxacyclotetradecino[4,3-d][1,3]oxazol-10-yl 3,4,6-trideoxy-3-(dimethylamino)-D-xylo-hexopyranoside]",3.13,≦0.05,0.4,0.4,0.2,0.4,≦0.05,0.78,0.1,0.2,≦0.05,0.2,≦0.05,,
"CC[C@H]1OC(=O)[C@H](C)C(=O)[C@H](C)[C@@H](OC2O[C@H](C)C[C@H](N(C)C)[C@H]2O)[C@@](C)(OC)C[C@@H](C)C(=O)[C@H](C)[C@H]2N(CCN(C)Cc3cccnc3)C(=O)O[C@]12CC (stereo partly drawn) [Example 23, (3aS,4R,7R,9R,10R,11S,13R,15R,15aR)-3a,4-diethyl-11-methoxy-7,9,11,13,15-pentamethyl-1-{2-[methyl(pyridin-3-ylmethyl)amino]ethyl}-2,6,8,14-tetraoxotetradecahydro-2H-oxacyclotetradecino[4,3-d][1,3]oxazol-10-yl 3,4,6-trideoxy-3-(dimethylamino)-D-xylo-hexopyranoside]",6.25,≦0.05,1.56,0.78,0.2,0.78,≦0.05,0.4,0.2,0.78,≦0.05,0.1,≦0.05,,
"CC[C@H]1OC(=O)[C@H](C)C(=O)[C@H](C)[C@@H](OC2O[C@H](C)C[C@H](N(C)C)[C@H]2O)[C@@](C)(OC)C[C@@H](C)C(=O)[C@H](C)[C@H]2N(CCCCn3cnc(-c4cncnc4)c3)C(=O)O[C@]12CC (stereo partly drawn) [Example 25, (3aS,4R,7R,9R,10R,11S,13R,15R,15aR)-3a,4-diethyl-11-methoxy-7,9,11,13,15-pentamethyl-2,6,8,14-tetraoxo-1-[4-(4-pyrimidin-5-yl-1H-imidazol-1-yl)butyl]tetradecahydro-2H-oxacyclotetradecino[4,3-d][1,3]oxazol-10-yl 3,4,6-trideoxy-3-(dimethylamino)-D-xylo-hexopyranoside]",3.13,≦0.05,0.4,0.2,0.1,0.2,≦0.05,0.4,0.1,0.1,≦0.05,0.1,≦0.05,,
"CC[C@H]1OC(=O)[C@H](C)C(=O)[C@H](C)[C@@H](OC2O[C@H](C)C[C@H](N(C)C)[C@H]2O)[C@@](C)(OC)C[C@@H](C)C(=O)[C@H](C)[C@H]2N(CCCCn3cnc(-c4cnccn4)c3)C(=O)O[C@]12CC (stereo partly drawn) [Example 26, (3aS,4R,7R,9R,10R,11S,13R,15R,15aR)-3a,4-diethyl-11-methoxy-7,9,11,13,15-pentamethyl-2,6,8,14-tetraoxo-1-[4-(4-pyrazin-2-yl-1H-imidazol-1-yl)butyl]tetradecahydro-2H-oxacyclotetradecino [4,3-d][1,3]oxazol-10-yl 3,4,6-trideoxy-3-(dimethylamino)-D-xylo-hexopyranoside]",3.13,≦0.05,0.2,0.2,0.2,0.2,≦0.05,0.4,,0.2,≦0.05,0.1,≦0.05,≦0.05,
"CC[C@H]1OC(=O)[C@@](C)(F)C(=O)[C@H](C)[C@@H](OC2O[C@H](C)C[C@H](N(C)C)[C@H]2O)[C@@](C)(OC)C[C@@H](C)C(=O)[C@H](C)[C@H]2N(CCCCn3cnc4ncccc43)C(=O)O[C@]12CC (stereo partly drawn) [Example 27, (3aS,4R,7S,9R,10R,11S,13R,15R,15aR)-3a,4-diethyl-7-fluoro-1-[4-(1H-imidazo[4,5-b]pyridin-1-yl)butyl]-11-methoxy-7,9,11,13,15-pentamethyl-2,6,8,14-tetra-oxotetradecahydro-2H-oxacyclotetradecino[4,3-d][1,3]oxazol-10-yl 3,4,6-trideoxy-3-(dimethylamino)-D-xylo-hexopyranoside]",1.56,≦0.025,0.1,0.1,0.05,0.1,,0.4,0.1,3.13,≦0.025,0.1,≦0.025,,0.025
"CC[C@H]1OC(=O)[C@H](C)C(=O)[C@H](C)[C@@H](OC2O[C@H](C)C[C@H](N(C)C)[C@H]2O)[C@@](C)(OC)C[C@@H](C)C(=O)[C@H](C)[C@H]2N(CCCCn3cnc(-c4ccncc4)c3)C(=O)O[C@]12CC (stereo partly drawn) [Example 28, (3aS,4R,7R,9R,10R,11S,13R,15R,15aR)-3a,4-diethyl-11-methoxy-7,9,11,13,15-pentamethyl-2,6,8,14-tetraoxo-1-[4-(4-pyridin-4-yl-1H-imidazol-1-yl)butyl]tetradecahydro-2H-oxacyclotetradecino[4,3-d][1,3]oxazol-10-yl 3,4,6-trideoxy-3-(dimethylamino)-D-xylo-hexopyranoside]",3.13,≦0.05,0.4,0.4,0.1,0.4,≦0.05,0.78,0.4,> 50,≦0.05,0.2,≦0.05,,
"CC[C@H]1OC(=O)[C@H](C)C(=O)[C@H](C)[C@@H](OC2O[C@H](C)C[C@H](N(C)C)[C@H]2O)[C@@](C)(OC)C[C@@H](C)C(=O)[C@H](C)[C@H]2N(CCCCn3cnc(-c4ccc(C)nc4)c3)C(=O)O[C@]12CC (stereo partly drawn) [Example 29, (3aS,4R,7R,9R,10R,11S,13R,15R,15aR)-3a,4-diethyl-11-methoxy-7,9,11,13,15-pentamethyl-1-{4-[4-(6-methylpyridin-3-yl)-1H-imidazol-1-yl]butyl}-2,6,8,14-tetraoxotetradecahydro-2H-oxacyclotetradecino[4,3-d][1,3]oxazol-10-yl 3,4,6-trideoxy-3-(dimethylamino)-D-xylo-hexopyranoside]",6.25,≦0.05,0.4,0.4,0.2,0.2,≦0.05,0.78,0.2,1.56,≦0.05,0.2,≦0.05,,
